2 molecules from patent US20230074252A1, “DOSAGES AND METHODS FOR TREATING PULMONARY ARTERIAL HYPERTENSION WITH RODATRISTAT” (Altavant Sciences GmbH, priority 2020, published 2023) can be followed below.

Series [1] can be described thus: Biopharmaceutics Classification System class. Type of series: physicochemical. An excerpt:
RVT-1201 is a Biopharmaceutics Classification System (BCS) Class II or IV molecule with in vitro permeability consistent with oral bioavailability, which has been evaluated in a Phase 1 single ascending dose (SAD)/multiple ascending dose (MAD) study using a simple immediate release (IR) drug-in-capsule formulation (Clinical Study KAR5585-101). The active pharmaceutical ingredient used in this clinical study was polymorph Form 1. An optimized/enhanced oral formulation was developed with a goal to improve patient acceptance, increase the oral bioavailability relative to the IR capsule formulation to facilitate a dose reduction, reduce inter-subject variability and to optimize a formulation process suitable for larger scale manufacture. An oral IR tablet formulation and 2 spray-dried dispersion suspensions using polymorph Form 3 were investigated in a second clinical study (Clinical Study RVT-1201-1001). The purpose of this study was to assess the performance of selected formulations following oral administration to healthy subjects.

Series [2] can be described thus: Stability in human whole blood. The format is in vitro ADME. The procedure: However, in human whole blood incubations, no loss of RVT-1201 was observed. […] Therefore, metabolism of RVT-1201 was assigned to a cytosolic carboxylesterase (CES1) within the PBPK model. Although the enzyme responsible for RVT-1201 elimination and KAR5417 formation has not been identified, CES1 was selected to represent the enzymatic metabolism of RVT-1201 for this fit-for-purpose PBPK model.

A short description of series [3]: Pro-drug to active ratio in portal versus peripheral blood. The format is in vivo. Particulars: rat. An excerpt: (§1) Calculation of Cmax, u, portal uses plasma Cmax, fraction of an oral dose absorbed (Fa) and measured unbound fraction in blood. For rodatristat, experimentally derived values were used for Fa determined in a rat 14C study (20%) and in vitro binding to human plasma (99.1%) and blood:plasma distribution (RB, 0.72). Walsky et al proposed a threshold where the ratio of Cmax, u, portal/Ki of <0.1 is associated with low risk. […] In the rat, the RE:R is ˜3-fold higher in portal blood compared to the periphery.

A short description of series [4]: Metabolic stability in liver preparations across species. The format is in vitro ADME. An excerpt:
(§2) The metabolism of rodatristat ethyl is predominantly by esterase mediated hydrolysis of the ester pro-drug moiety to rodatristat in liver tissue preparations from human, rat, dog, and cynomolgus monkey, and intestinal and lung tissues from rat and human. Hydrolysis of rodatristat ethyl was also observed in rat blood, and to a much lesser extent in dog and human blood.

A short description of a further series: Elimination route in rat. The format is in vivo.
Source text: as §2

Series [5] in a line: Blood:plasma distribution. Conditions: whole blood; read-out: Blood:plasma distribution (RB). Type of series: in vitro ADME.
Source text: as §1

Series [6] is described as follows: Rat 14C study, fraction of oral dose absorbed. The format is in vivo.
Source text: as §1

On to `CCOC(=O)[C@@H]1CC2(CCN(c3cc(O[C@H](c4ccc(Cl)cc4-c4ccccc4)C(F)(F)F)nc(N)n3)CC2)CN1` [Rodatristat ethyl, (S)-ethyl 8-(2-amino-6-((R)-1-(5-chloro-[1,1′-biphenyl]-2-yl)-2,2,2-trifluoroethoxy)pyrimidin-4-yl)-2,8-diazaspiro[4.5]decane-3-carboxylate], for which the “Biopharmaceutics Classification System (BCS) Class” value in series [1] was “II or IV”. Moreover, the “Loss in human whole blood incubations” value in series [2] was “no loss”. For the same molecule, the “RE:R ratio higher in portal blood compared to the periphery” value in series [3] is listed as roughly 3 fold.

For `Nc1nc(O[C@H](c2ccc(Cl)cc2-c2ccccc2)C(F)(F)F)cc(N2CCC3(CC2)CN[C@H](C(=O)O)C3)n1` [Rodatristat, (S)-8-(2-amino-6-((R)-1-(5-chloro-[1,1′-biphenyl]-2-yl)-2,2,2-trifluoroeth-oxy)pyrimidin-4-yl)-2,8-diazaspiro[4.5]decane-3-carboxylic acid], the “Metabolic stability in liver preparations” value in series [4] is given as “metabolically stable”. For the same molecule, the Elimination route entry in the series “Elimination route in rat” is listed as “largely eliminated unchanged in bile”. Further, the blood plasma ratio in series [5] was determined as 0.72. Further, in series [6], the “Fraction of an oral dose absorbed (Fa)” value is reported as 20%.
